Patent US7691563B2, “Method for alleviating pain using sphingosine-1-phosphate and related compounds, and assays for identifying such compounds” (Sanofi-Aventis Pharma GmbH, priority 2003, dated 2010)

Tested on: adenylyl cyclase (AC)
Assay: AC activity of HeLa cell lysates after treatment of cells
Assay type: cell-based, human
Settings: HeLa cells
Protocol: Panel B: Adenylyl cyclase activity of HeLa cell lysates was measured in the absence and presence of serum as described in Materials and Methods section. The Gsα* (80 nM; grey bars)- and forskolin (100 μM; black bars)-stimulated specific activities of ACV were 124±10 pmol/mg/min and 464±89 pmol/min/mg, respectively. The basal activity was 11.75±2 pmol/mg/min. The mean ±SE of at least 2 experiments each done in triplicates is shown. Student T test: *p<0.001.
Panel E: Serum-starved HeLa cells were treated with sense, antisense, and 3M-as ODNs as described above. After 24 hours the cells were incubated for 30 minutes with 10% FBS. Cells were harvested and AC activity in presence of Gαs* (80 nM; grey bars) and forskolin (100 μM; black bars) was determined as described above. Data from at least 3 experiments measured in triplicates are presented as the mean±SEM. Student T test: *p<0.01, **p<0.05.
Panel B: Serum-starved HeLa cells were treated for varying times with 0.5 μM S1P. Cells were harvested and AC activity in presence of 80 nM Gαs* was determined as described in Material and Methods. Data from at least 4 experiments measured in triplicates are presented as the mean ±SE.
Panel C: Serum-starved HeLa cells were treated with sense, antisense, and 3M-as ODNs as described in the Materials and Methods section. After 24 hours the cells were incubated for the indicated times with 0.5 μM S1P. Cells were harvested and AC activity in presence of Gαs* (80 nM) was determined as described above. Data are presented as the mean ±SEM of three determinations.
Panel A: Serum-starved HeLa cells were treated with 0.5 μM S1P for 3 (grey bars) or 60 (black bars) minutes. Prior incubation with S1P the cells were incubated for 24 hours with […] pertussis toxin (PTX). AC activity in was determined presence of 80 nM Gαs*. Data from at least 2 experiments measured in triplicates are presented as the mean ±SE.
Panel B: Serum-starved HeLa cells were treated with 0.5 μM S1P. Prior incubation with S1P the cells were incubated for 20 minutes with 10 μM U73122, R031-8220, BAPTA-AM or U0126. AC activity in was determined presence of 80 nM Gαs*. Data from at least 2 experiments measured in triplicates are presented as the mean ±SE.
Spinal cords were lysed in 25 mM Hepes, pH 7.4, 1 mM EGTA and cell membranes were prepared as described by Kassis and Fishman. Aliquots were stored at −80° C. until use. AC activity assays were performed in a volume of 100 μl for 15 min at room temperature in the presence of 100 μM MgCl2 as previously described (Patel et al., 2002). Gsα* (80 nM) or forskolin (100 μM) were used to stimulate AC enzyme activity in membranes (10 μg protein).
The sequences of the oligodeoxynucleotides (ODNs) were chosen as published previously (Scholich et al., 2001). Sense: 5′-CTGTTCATGCCGGTT-3′, antisense: 5′-AACCGGCATGAACAG-3′, and antisense ODN harboring three mutations (3M-as; mutations are underlined): 5′-AATCCGTATGAACAC-3′. HeLa-cells were plated on 35 mm dishes (300,000 cells) and grown in DMEM medium (Gibco, Karlsruhe, Germany) containing 10% FBS and 1% penicillin/streptoMycin for 24 hours. The ODNs (3 μM each) were introduced into the cells by transfections using Tfx20 (Promega, Madison, Wis.) in 1 ml serum-free medium according to the instructions of the manufacturer. Two hours later, 1 ml DMEM (Gibco, Karlsruhe, Germany) containing 10% FBS was added. The cells were then incubated for 6 hours. Then the medium was exchanged against serum-free DMEM (Gibco, Karlsruhe, Germany), followed by an incubation for 16 hours in serum-free DMEM (Gibco, Karlsruhe, Germany) before being treated with 10% serum or […] S1P. The cells were then used for Western blots by adding boiling 1× Laemmli buffer or they were havested for AC activity assays as described above.

## CCCCCCCCCCCCC/C=C/[C@@H](O)[C@@H](N)COP(=O)(O)O [S1P, Sphingosine-1-Phosphate]
0.5 μM S1P
  Gαs-stimulated AC activity: reduced
After incubation with S1P
  time to first decrease of Gαs-stimulated AC activity: ≤ 3 min
